# In article PMC6378053, “Flavonol 7-O-Glucoside Herbacitrin Inhibits HIV-1 Replication through Simultaneous Integrase and Reverse Transcriptase Inhibition” (Evidence-based Complementary and Alternative Medicine : eCAM, 2019):
# Columns and labels:
# HIV-1 (HTLV-IIIB) = experiment: Cell-based antiviral assay, HIV-1 p24 core protein ELISA in supernatants of infected MT-4 and MT-2 cells; details: nontoxic concentrations (2.1 μM), 5 days of incubation
# Experimental: MT-4 and MT-2 cells at a density of 15,000 cells/well were incubated in 96-well plates in the presence of compounds at 37°C in 5% CO2 for 5 days. Simultaneously, cells were exposed to HIV-1 (2,32∗10^2 TCID50/ml). Untreated and infected or AZT (3′-azido-3′-deoxythymidine)-treated cells were used as controls. After the incubation period, diluted culture supernatants were analyzed for HIV production by determining the amount of viral core protein using a p24 enzyme-linked immunosorbent assay (ELISA) kit (Fujirebio) according to manufacturer's instructions. The results were expressed relative to the control of untreated HIV-1 infected cells. The experiment was performed in four biological replicates. Statistical analysis was performed by one-way ANOVA followed by Bonferroni's post hoc test.
# [1] = MTT cytotoxicity assay on MT-2 cells; details: human
# Experimental: (§1) The permanent human T-cell lines MT-4 and MT-2 were maintained at 37°C in a humidified atmosphere containing 5% CO2 in RPMI 1640 (Sigma-Aldrich) medium supplemented with 10% heat-inactivated fetal bovine serum (Sigma-Aldrich), 100 IU/ml penicillin and 100 μg/ml streptomycin (Sigma-Aldrich). HIV-1 (HTLV-IIIB) was obtained from the culture supernatant of MT-4/HTLV-IIIB cells. The 50% HIV-1 tissue culture infectious dose (TCID50) on MT-4 cells was determined by virus yield assay.
# (§2) To determine the in vitro cytotoxic effect of the compounds, viability of the treated and untreated cells was measured by a colorimetric assay as described earlier. Briefly, MT-4 and MT-2 cells were seeded into a 96-well plate at a density of 15,000 cells/well in the presence of different concentrations of the compounds dissolved in dimethyl sulfoxide (DMSO). […] After 4 days of incubation, cell cultures were analyzed using MTT cell viability assay (Sigma-Aldrich) to monitor the reduction of 3-(4,5-dimethylthiazol-2-yl)-2,5-diphenyl-tetrazolium bromide (MTT) to a blue formazan product by metabolically active cells. To initiate the cell viability assay, 20 μl MTT (5 mg/mL dissolved in PBS) was added to each well. After 4 h incubation cell supernatant was removed and 100 μl DMSO per well was added. The absorbance was measured at 550 nm on a microplate reader after mixing the contents thoroughly. The cytotoxicity tests were implemented in two biological replicates.
# [2] = MTT cytotoxicity assay on MT-4 cells; details: human
# Experimental: as §1, §2
# [3] = biological target: T1, recombinant HIV-1 integrase (IN) (Human immunodeficiency virus type 1 group M subtype B, UniProt P04585); experiment: HIV-1 integrase inhibition, IN assay kit; format: biochemical; details: 2.15 μM concentration
# T1 construct: activity of recombinant HIV-1 reverse transcriptase (RT) and integrase (IN); purchased Express Biotech International
# Experimental: (§3) Inhibitory effects of compounds on the HIV-1 reverse transcriptase and integrase activity were measured by a colorimetric RT kit (Roche Diagnostics) and IN assay kit (Express Biotech International) according to the instructions of the manufacturer. Reverse transcriptase assay measures the amount of labeled nucleotides incorporated during the transcription process of RNA. Nevirapine, a nonnucleoside RT inhibitor, was used as a positive control in the RT reaction. HIV-1 integrase assay measures the integrase activity after 3′-end processing of the HIV-1 LTR donor substrate DNA and catalyzing the strand-transfer recombination reaction to integrate the donor substrate DNA into the target substrate DNA. Sodium azide was applied as a positive control compound in the experiments measuring the integrase activity. The RT and IN inhibition assays were performed in two biological replicates. Statistical analysis was performed by one-way ANOVA followed by Bonferroni's post hoc test, and a planned comparison by unpaired T-test was also performed (see Figure 3(b)).
# [4] = biological target: T2, recombinant HIV-1 reverse transcriptase (RT) (Human immunodeficiency virus type 1 group M subtype B, UniProt P04585); experiment: HIV-1 reverse transcriptase inhibition, colorimetric RT kit; format: biochemical; details: 21.5 μM concentration
# T2 construct: activity of recombinant HIV-1 reverse transcriptase (RT) and integrase (IN); purchased Roche Diagnostics
# Experimental: as §3
# HIV-1 BaL, HIV-1 MN = system: HIV-1 BaL, HIV-1 MN; set-up: method as in PMID 25546350; details: TZM-bl cell plus HIV-1 BaL and H9, and PBMC plus HIV-1 MN; read-out: IC50 antiviral effect; cited from earlier work
# HIV-1 [5] = system: HIV-1; set-up: method as in PMID 25546350; details: C8166 cells; cited from earlier work
# HIV-1 [6] = system: HIV-1; set-up: method as in PMID 25546350; details: C8166 cells; cited from earlier work; remark: listed apart in the source
# HIV [7] = system: HIV; set-up: method as in doi:10.3844/ajidsp.2009.135.141; details: normal peripheral blood mononuclear cells (PBMC); cited from earlier work
# HIV [8] = system: HIV; set-up: method as in PMID 12213478; details: MT-2 cells; read-out: IC50 HIV infection of MT-2 cells; cited from earlier work
# MT-2 cells = details: at concentrations as high as 800 μM; cited from earlier work
# [9] = system: IN (strand transfer reaction); set-up: method as in PMID 12213478; details: in vitro; cited from earlier work
# IN = details: cited from earlier work
smiles,measurement,setting,value
"O=c1c(O)c(-c2ccc(O)c(O)c2)oc2c(O)c(OC3OC(CO)C(O)C(O)C3O)cc(O)c12 (stereo not drawn) [Gossypitrin (2), gossypitrin]",Effect on HIV-1 replication (p24 core protein levels),HIV-1 (HTLV-IIIB),ineffective
same,CC50 at 4 days,[1]; MT-2 cells,113 µM
same,CC50 at 4 days,[2]; MT-4 cells,101 µM
"O=c1c(O)c(-c2ccc(O)cc2)oc2c(O)c(OC3OC(CO)C(O)C(O)C3O)cc(O)c12 (stereo not drawn) [Herbacitrin (1), herbacitrin]",Effect on HIV-1 replication (p24 core protein levels),HIV-1 (HTLV-IIIB),reduced HIV-1 replication
same,Inhibition of HIV-1 integrase activity,[3]; listed as Herbacitrin,active
same,Inhibition of HIV-1 integrase activity,[3]; listed as herbacitrin,inhibited
same,CC50 at 4 days,[1]; MT-2 cells,63.6 µM
same,CC50 at 4 days,[2]; MT-4 cells,27.8 µM
same,Inhibition of HIV-1 reverse transcriptase activity,[4]; listed as Herbacitrin,inhibit
same,Inhibition of HIV-1 reverse transcriptase activity,[4]; listed as herbacitrin,significantly inhibited
"O=c1c(O)c(-c2ccc(O)c(O)c2)oc2cc(O)cc(O)c12 [Quercetin (3), quercetin]",Effect on HIV-1 replication (p24 core protein levels),HIV-1 (HTLV-IIIB),reduced HIV-1 replication
same,IC50,"HIV-1 BaL, HIV-1 MN",29.8 to 89 µM
same,EC50 protection of HIV-1 induced cytopathic effects,HIV-1 [5],23.2 µg/mL
same,EC50 inhibition of syncytium formation,HIV-1 [6],42.55 µg/mL
same,CC50 at 4 days,[1],157 µM
same,"Anti-HIV activity (HIV replication, virus infectivity)",HIV [7],significant anti-HIV activity
same,CC50 at 4 days,[2],108 µM
O=c1cc(-c2ccc(O)c(O)c2)oc2cc(O[C@@H]3O[C@H](CO)[C@@H](O)[C@H](O)[C@H]3OS(=O)(=O)O)cc(O)c12 [Thalassiolin A],IC50,HIV [8],~30 µM
same,Cytotoxicity,MT-2 cells,no cytotoxicity
same,Inhibitory concentration against the strand transfer reaction,[9],submicromolar
"O=c1c(O)c(-c2ccc(O)c(O)c2)oc2cc(O)c(O)c(O)c12 [quercetagetin, quercetagetin (6-hydroxyquercetin)]",Inhibition of viral cleavage and integration,IN,strong inhibitor
